# Entries after “also recorded” stand apart in the source; their conditions may differ. Where no end group is shown, it is not given here.
# Key:
# C. trachomatis LGV-L2 = assay: Generation of infectious particles (IFU) and inclusion growth in infected HeLa cells; format: cell-based
# Experimental: FIG. 9 depicts (A) CPAF inhibitory peptides block the generation of Chlamydia infectious particles. L2-infected HeLa cells were treated at 12 hpi with increasing concentration of peptides. EBs were harvested at 30 hpi and inclusion-forming units (IFU) were quantified on fresh cell monolayers. (B-D) CPAF activity is required to maintain inclusion integrity. The integrity of the inclusion was determined by assessing the immunolocalization of the inclusion membrane marker IncA (red) and Chlamydia (green) (B) and by transmission electron microscopy (C). […] (D) The percentage of vimentin-positive inclusions was determined by IF in infected cells treated with SEQ ID NO:7 and SEQ ID NO:11 (12 hpi) peptides at 24 hpi. (E) Activation of inflammatory cytokines upon inhibition of CPAF activity. Levels of IL-8 supernatants from Chlamydia infected cells treated with peptides as in (B-D) were determined at 24 hpi by ELISA.
# Cells were infected with an MOI of 1 and treated with CPAF inhibitor (SEQ ID NO:7) or control (SEQ ID NO:11) peptides at 12 hpi, fixed at 24 hpi and analyzed by IF with anti-L2 polyclonal antisera. Inclusion size was determined by measuring the inclusion diameter in μm by confocal microscopy of 50 infected cells. The number of cells with fragmented inclusions was determined by counting the number of infected cells out of 50 with more than one inclusion. […]
# C. caviae CPAF = assay: GST-IncC cleavage by lysate of C. caviae (GPIC) infected cells; format: biochemical; details: infected whole cell lysate
# Experimental: Cells were infected with an MOI of 1 and treated with CPAF inhibitor (SEQ ID NO:7) or control (SEQ ID NO:11) peptides at 12 hpi, fixed at 24 hpi and analyzed by IF with anti-L2 polyclonal antisera. Inclusion size was determined by measuring the inclusion diameter in μm by confocal microscopy of 50 infected cells. The number of cells with fragmented inclusions was determined by counting the number of infected cells out of 50 with more than one inclusion. (C) Sequence alignment and % sequence identify of full length CPAF and predicted inhibitory peptide sequence between C. trachomatis serovar LGV-L2, Chlamydia muridarum, and Chlamydophila caviae was determined using Geneious software (available at the Geneious website). […] GPIC or C. muridarum infected whole cell protein lysate was preincubated with SEQ ID NO:7 peptide or SEQ ID NO:11 control peptide, mixed with GST-IncC at 37° C., resolved by SDS-PAGE and stained with Coomassie blue. […] Inhibition of C. muridarum (E) and C. ceviae (F) growth was determined by counting the number of recovered IFUs. […] Inclusions were detected by IF with anti-LGV-L2 (A, B, E) antisera or anti-chlamydial LPS (F) monoclonal antibodies, and host nuclei sere detected by staining.
# [1] = tested on: epithelial cells infected with C. trachomatis; assay: Host cell death (condensed nuclei) in C. trachomatis infected cells; format: cell-based; details: dose-dependent, peptide at 12 hpi
# Experimental: (§1) FIG. 11 depicts (A) that inhibiting CPAF activity induces host cell death. The indicated peptides (anti-CPAF peptide refers to SEQ ID NO:7) were added to infected cells 12 hpi and the percentage of infected cells with condensed nuclei was quantified at the indicated times. (B-C) Inhibition of CPAF activity induces apoptosis. Infected cells were treated with peptides and the percentage of AnnexinV-FITC positive (propidium iodide (PI) negative) was determined by flow cytometry (B). In parallel samples, cleavage of Caspase-3, a hallmark of apoptosome activation, was monitored by immunoblot analysis. Actin and MOMP are host and bacterial loading controls respectively. Staurosporine (2 μM)-treatment was used as a positive control and the pan-caspase inhibitor ZVAD-FMK were used as controls. (D) Cell death is blocked by a pan-Caspase inhibitor. Infected cells were treated as in (A) in the presence or absence of ZVAD-FMK, labeled with PI and analyzed by flow cytometry. Cells pre-treated with ZVAD-FMK and the control peptide lacked PI staining.
# FIG. 12 depicts (A) low-magnification view of C. trachomatis LGV-L2 infected HeLa monolayers (30 h) treated with SEQ ID NO:7 or SEQ ID NO:11 peptides. […] HeLa cells infected with C. muridarum were treated with Ac-YVAD-CMK at 2 hpi, SEQ ID NO:7 peptide or SEQ ID NO:11 control peptide at 12 hpi and the percentage of infected cells with condensed nuclei was assessed at 48 hpi (F). […] The percentage of infected cells with condensed nuclei was assessed at 48 hpi (G). […] Cell death in infected and uninfected cells treated with CPAF inhibitory peptides or control peptides was determined by counting the number of condensed nuclei of ˜1000 cells.
# FIG. 13 depicts (A) that Caspase-1 inhibitors block Chlamydia-mediated cell death. […] Cells were fixed and the percentage of cells with condensed nuclei determined at 24 hpi. […] Infected cells were labeled with a cell-permeable fluorescent substrate of Caspase-1 and treated with inhibitory peptides, and Caspase-1 activity was monitored by flow cytometry. […]
# [2] = tested on: C. caviae infected HeLa cells; assay: Host cell death (condensed nuclei) in C. caviae infected cells; format: cell-based; details: peptide-treated HeLa cells; listed as EQ ID NO:7
# Experimental: FIG. 12 depicts (A) low-magnification view of C. trachomatis LGV-L2 infected HeLa monolayers (30 h) treated with SEQ ID NO:7 or SEQ ID NO:11 peptides. (B) The frequency of condensed nuclei in treated cells is dependent on peptide concentration and Chlamydia infection. (C-D) Toxicity of CPAF inhibitors to Chlamydia-infected cells is observed in non-myeloid cells including human embryonic kidney cells HEK293 (C) and mouse embryo fibroblasts (D). […] (F-G) Cell death induced by anti-CPAF peptides requires Caspase-1 activation. HeLa cells infected with C. muridarum were treated with Ac-YVAD-CMK at 2 hpi, SEQ ID NO:7 peptide or SEQ ID NO:11 control peptide at 12 hpi and the percentage of infected cells with condensed nuclei was assessed at 48 hpi (F). Mouse lung fibroblasts (MLF) derived from congenic WT, ICE1^−/− and ASC^−/− animals were infected with C. muridarum and treated with the indicated concentrations of anti peptides 12 hpi. The percentage of infected cells with condensed nuclei was assessed at 48 hpi (G). LGV-L2 inclusions were immunostained with anti-L2 antisera and C. muridarum and C. caviae inclusions were immunostained with an anti-chlamydial LPS monoclonal antibody. Cell death in infected and uninfected cells treated with CPAF inhibitory peptides or control peptides was determined by counting the number of condensed nuclei of ˜1000 cells.
# [3] = tested on: Chlamydia-infected HeLa cells; assay: Apoptosis markers (AnnexinV staining, Caspase-3 cleavage) in infected HeLa cells; format: cell-based, C. trachomatis; details: peptide 12.5 μM at 12 hpi
# Experimental: as §1, with “Staurosporine (2 μM)-treatment was used as a positive control and the pan-caspase inhibitor ZVAD-FMK were used as controls. (D) Cell death is blocked by a pan-Caspase inhibitor.” left out, “Cells pre-treated with ZVAD-FMK and the control peptide lacked PI staining.” left out
# Subsequent experiments tested whether CPAF inhibition led to the onset of apoptosis in infected cells. […] Apoptotic cells were identified with an AnnexinV-FLOUS Staining Kit (available from Roche) and activation of Caspase-1 was determined by labeling active Caspase-1 with a Carboxyfluorescein FLICA Detection Kit (available from Immunochemistry) and analyzed in a FACScanner (available from BD Biosciences). […] Consistent with result, Caspase-3 cleavage, another characteristic of apoptotic cell death, was not detected (FIG. 11C).
substance,measurement,setting,value
SLFYSPMVPHFWAELRNHYATSGLKRRRRRRRRR-NH2 [SEQ ID NO:7],Yields of EBs (IFU),"C. trachomatis LGV-L2; L2-infected HeLa, peptide at 12 hpi, EBs harvested 30 hpi",significantly lowered yields of EBs
same,Inclusion growth,"C. trachomatis LGV-L2; MOI 1, peptide at 12 hpi, fixed 24 hpi",stunted inclusion growth
same,Inhibition of C. caviae CPAF,C. caviae CPAF,not sensitive to inhibition; also recorded: but not C. ceviae CPAF
same,Number of condensed nuclei in C. trachomatis infected cells,[1],marked increase in the number of condensed nuclei
same,Condensed nuclei / cell death in C. caviae infected cells,[2],do not cause cell death
same,AnnexinV staining of infected cells,[3],did not stain for AnnexinV
same,Caspase-3 cleavage in infected cells,[3]; immunoblot,not detected
